According to patent publication US20240270713A1, “NOVEL COMPOUND EXHIBITING THERAPEUTIC EFFECT ON INFLAMMATORY DISEASE AS P38 MAP KINASE INHIBITOR” (PRAZERTHERAPEUTICS INC., priority 2021, published 2024):

Columns and labels:
TNFα = TNFα inhibitory ability by cellular inflammatory response (supernatant, antibody-coated plate), Raw264.7 cells; assay type: cell-based; details: Mus musculus, 1 μM compound 24 hours, then 100 ng/ml LPS 24 hours, supernatant protein
Procedure: Evaluation of TNFα inhibitory ability by cellular inflammatory response
In order to identify inhibition of p-p38 MAPK, inhibition of p38 MAPK was identified after treating each compound to Raw264.7 cells obtained by converting macrophages that induces inflammation according to p-p38 MAPK activity cancerous cells. Briefly, Raw264.7 cells were cultured in Dulbecco's modified Eagle Medium supplemented with 10% fetal bovine serum and penicillin/streptomycin (100 U/ml). Raw264.7 cells were treated with 1 μM of Compounds 1 to 5 according to the present disclosure in a culture dish respectively and cultured for 24 hours in a CO2 incubator, and then treated with 100 ng/ml of LPS, followed by additional culture for 24 hours in a CO2 incubator.
After the cell culture was completed according to the experimental conditions, the supernatant was obtained and centrifuged for 3 minutes at 1200 rpm. The centrifuged supernatant was dispensed into an antibody-coated plate, reacted at room temperature for 2 hours, and washed with PBS-T (0.5% tween 20 in PBS). After dispensing detection antibody including HRP, a reaction was performed at room temperature for 1 hour, and the amount of protein was checked at a wavelength of 450 nm, the results of which are shown in Table 7 below.

p-p38 MAPK [1] = molecular target: p-p38 MAPK (Homo sapiens (Human), UniProt Q16539); experiment: p38 MAPK protein inhibitory ability in brain-derived cells (p-p38 immunoblot, SH-SY5Y); assay type: cell-based
Procedure: Evaluation of p38 MAPK protein inhibitory ability in brain-derived cells
In order to identify inhibition of p-p38 MAPK in brain cells, the inhibition of p38 MAPK was identified by inducing inflammation after treating each compound to SH-SYSY cells obtained by converting human neurons into cancerous cells. In short, SH-SY5Y cells were cultured in Minimum essential medium/Eagle's balanced salts supplemented with 10% fetal bovine serum and penicillin/streptomycin (100 U/ml). SH-SY5Y cells were treated with 1 μM of Compounds 4 and 6 according to the present disclosure in a culture dish respectively and cultured for 24 hours in a CO2 incubator, and then treated with 1000 ng/ml of LPS, followed by additional culture for 6 hours in a CO2 incubator.
(§1) After cell culture was terminated according to the experimental conditions, cells were washed with cold phosphate buffered saline (PBS). The cells were then collected and centrifuged at 1200 rpm for 3 minutes. The cells in the sediment were lysed with 2X sample buffer (1M Tris-HCl pH 6.8, 50% glycerol, 10% SDS, 2-mercaptoethanol, 1% bromophenol blue) and boiled at 100° C. for 10 minutes. The prepared protein samples were subjected to sodium dodecyl sulfate poly acrylamide gel electrophoresis and transferred to PVDF membrane (Millipore). For a specific binding reaction between the protein in the PVDF membrane and antibody, blocking was performed in a 5% bovine serum albumin (BSA, RMbio) solution. Subsequently, the BSA solution was discarded, and the membrane was washed with PBS-T (0.5% Tween 20 in PBS). The binding reaction of the protein in the membrane and antibody was performed overnight at 4° C. and washed again with PBS-T. Finally, a secondary antibody (Cell signaling Technology) conjugated with horse radish peroxidase (HRP) was diluted in PBS-T and reacted at room temperature for 2 hours. Luminata Forte HRP substrate (Millipore) was used to determine the amount of protein in the membrane, the results of which are shown in Table 8 below.

p-p38 MAPK [2] = molecular target: p-p38 MAPK (Mus musculus (Mouse), UniProt P47811); experiment: p38 MAPK protein inhibitory ability in normal brain cells (p-p38 immunoblot, primary neurons); assay type: cell-based, ICR mice
Source text: Evaluation of p38 MAPK protein inhibitory ability in normal brain cells
In order to identify inhibition of p-p38 MAPK in normal cells rather than cancer cells, the inhibition of p38 MAPK was identified by inducing inflammation after treating neuron cells obtained from cerebrum of ICR mice with each compound. In short, neurons were collected from the cerebrum of the embryos of ICR mice 17-18 days after gestation and cultured for 7 days in a neurobasal medium supplemented with 2% B27 supplements, 2 mM glutamine, and penicillin/streptomycin (100 U/ml). Primary neurons were treated with 1 μM of Compounds 4 and 6 according to the present disclosure in a culture dish respectively and cultured for 24 hours in a CO2 incubator, and then treated with 1000 ng/ml of LPS, followed by additional culture for 6 hours in a CO2 incubator.
as §1, with “After the” for “After”, “conditions, washing was performed” for “conditions, cells were washed”, “reaction between” for “reaction of”, “Table 9” for “Table 8”

IL-6 mRNA = experiment: Cytokine mRNA expression inhibitory ability, IL-6, LPS-treated BV2 cells; assay type: cell-based; details: 1 μM compound 24 hours, then 1000 ng/ml LPS 24 hours
Procedure: Evaluation of cytokine mRNA expression inhibitory ability by inflammatory response
In order to identify inhibition of p-p38 MAPK, the inhibition of p38 MAPK was identified by treating each compound to BV2 cells obtained by converting microglia that induces inflammation according to p-p38 MAPK activity in the brain into cancerous cells. Briefly, BV2 cells were cultured in Dulbecco's modified Eagle Medium supplemented with 10% fetal bovine serum and penicillin/streptomycin (100 U/ml). BV2 cells were treated with 1 μM of Compounds 4 to 6 according to the present disclosure in a culture dish respectively and cultured for 24 hours in a CO2 incubator, and then treated with 1000 ng/ml of LPS, followed by additional culture for 24 hours in a CO2 incubator.
After the cell culture was completed according to the experimental conditions, washing was performed with cold phosphate buffered saline (PBS). The cells were then collected and centrifuged at 1200 rpm for 3 minutes. RNA was extracted according to the method provided in the Hybrid-R total RNA purification kit (GeneAllR), 305-101). After measuring the concentration and purity of RNA using Nanodrop, cDNA was synthesized according to the method provided in TOPscript RT DryMIX (Enzynomics, RT200). […]

p-p38 MAPK (Homo sapiens (Human), UniProt Q16539), sequence (Q16539 whole entry): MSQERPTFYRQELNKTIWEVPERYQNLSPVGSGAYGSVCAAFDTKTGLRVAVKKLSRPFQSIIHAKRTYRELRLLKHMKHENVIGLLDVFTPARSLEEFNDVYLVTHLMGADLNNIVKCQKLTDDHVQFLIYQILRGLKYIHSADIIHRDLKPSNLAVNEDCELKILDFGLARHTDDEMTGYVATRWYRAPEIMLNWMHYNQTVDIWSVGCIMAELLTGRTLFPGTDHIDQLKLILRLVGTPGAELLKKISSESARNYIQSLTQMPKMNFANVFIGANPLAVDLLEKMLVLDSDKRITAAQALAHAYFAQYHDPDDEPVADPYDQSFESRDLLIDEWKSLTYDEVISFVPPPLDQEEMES
p-p38 MAPK (Mus musculus (Mouse), UniProt P47811), sequence (P47811 whole entry): as the sequence (Q16539 whole entry) above, with L48H, T263A counted along it

## Cc1c(F)cc(C(=O)NC2CC2)cc1-c1ccc(C(=O)c2c[nH]c3ccccc23)cn1 [Compound 4, 3-(5-(1H-indole-3-carbonyl)pyridin-2-yl)-N-cyclopropyl-5-fluoro-4-methylbenzamide]
TNFα
  inhibition at 1 µM: 76.6%
p-p38 MAPK [1]; 1 μM
  p38 phosphorylation in cells derived from human (result in words): effectively inhibited p38 phosphorylation
p-p38 MAPK [1]; 1 μM compound 24 hours, then 1000 ng/ml LPS 6 hours
  inhibition at 1 µM: 74.6%
p-p38 MAPK [2]; primary mouse neurons, 1 μM
  p38 phosphorylation due to inflammation in normal cells (result in words): effectively inhibited p38 phosphorylation
p-p38 MAPK [2]; primary neurons from cerebrum of ICR mouse embryos, 1 μM compound 24 hours, then 1000 ng/ml LPS 6 hours
  inhibition at 1 µM: 55.8%
IL-6 mRNA
  IL-6 mRNA inhibition: 52.8%
